Series [1] concerns C. elegans. Description: 6-OHDA Parkinsonian model, electrotaxis movement testing. The class given is in vivo. To be noted: L-DOPA free or loaded in 25 w/v % hydrogels (DS=0.5). Here is the method: The stability of L-DOPA delivered using the SNP-CHO@CMCh or SNP-APBA@CMCh bulk hydrogels was assessed using an in vivo C. elegans assay. Wild-type late larval stage worms were exposed to 30 mM 6-OHDA in ascorbic acid for 1 hr to induce dopaminergic neurodegeneration. After 24 hours, worms were added to a 12-well plate in which each well contains 400 μL of SNP-CHO@CMCh or SNP-APBA@CMCh bulk hydrogel as well as E. coli (for food) to form a 3 mL liquid culture in which worms are continuously exposed to released L-DOPA.
Worms were sampled at various time points (0 h, 4 h, 8 h, 12 h, 24 h, 48 h) to assess movement. Motility changes, assessed based on the average speed of the worms in mm/s (minimum n=20 worms per sample and time point tested), were measured using an in-house voltage-induced electrotaxis microfluidic assay developed to quantify drug induced dopaminergic neuron signal-mediated movement. In addition to the test sample (Group 1), control groups of no 6-OHDA, no hydrogel (Group 2, untreated control), 6-OHDA, no hydrogel (Group 3, drug control); 6-OHDA, blank hydrogel (Group 4, material control); and 6-OHDA, drug(s) without hydrogel (Group 5, delivery vehicle control) were assessed (minimum n=20 worms/group). L-DOPA was loaded in both SNP-CHO@CMCh and SNP-APBA@CMCh 25 w/v % hydrogels (DS=0.5) at 3 or 9 […].

A short description of series [2]: L-DOPA anti-oxidation in hydrogels (visual colour). The class given is physicochemical. As to conditions: 3 mg L-DOPA, MES pH 6 or PBS pH 7.4, 12 h at 37° C. Here is the method: 200 μL of 25 w/v % (DS 0.5) SNP-CHO or SNP-APBA was combined with 200 μL of CMCh (pH 7) to form a 400 μL bulk hydrogel in a 12 plate well. Gels were loaded with 3 mg of L-DOPA by suspending the powered drug into the aqueous SNP precursor before gelling. The gels were submerged in 3 mL of 0.1M MES (pH 6) buffer or 10 mM PBS (pH 7.4) buffer. Oxidation of L-DOPA was assessed visually, with the formation of dark yellow-brown and black precipitates indicating L-DOPA oxidation to its dopaquinone and dopachrome polymer forms, and assessed with respect to controls of L-DOPA at the same concentration in each of the respective buffers (without a hydrogel).

Series [3] concerns B16-F10 melanoma tumor. Description: In vivo anti-tumor test (relative tumor volume). Further details: species or system C57BL/6 mice. As to conditions: 5.0 mg/kg DOX tail vein every three days, 10-day period. The method, then: (§1) The antitumor effect of DOX, DOX-Clusters (control), and Dox-iClusters was evaluated by tracking the relative tumor volume (V/V0) after treatment with the nanocluster nanogels. C57BL/6 mice were injected intradermally with B16-F10 melanoma tumor cells, allowing the tumors to grow to ˜20 mm^3 by day 7 after the injections. The mice were treated by tail vein injection of 200 μL of PBS, DOX, DOX-iCluster and DOX-Cluster every three days (5.0 mg/kg of DOX for all formulations), after which both the tumor size and body weight were monitored regularly over a 10-day period.

The nature of series [4]: Body weight in the in vivo anti-tumor test. Also noted: species or system C57BL/6 mice. To be noted: 5.0 mg/kg DOX tail vein every three days, ten days. The method, then: as §1
In series [5] the test system is Sprague-Dawley rats, MK-801 model of schizophrenia. Description: MK-801 schizophrenia model, social interaction behavioral testing. The class given is in vivo, rat. The method, then: Age-matched male Sprague-Dawley rats (250-300 g, Charles River Canada, St. Constant, QC, Canada) received care that complied with protocols approved by the Animal Research Ethics Board at McMaster University and the guidelines of the Canadian Council on Animal Care. Animals were housed individually in standard cages on a reverse 12 h light cycle. Upon arrival, animals were habituated to their holding room for 1 week, followed by a week of handling (touching and petting for at least 5 minutes each, every other day) prior to any testing. Animals were handled regularly throughout the duration of all experimentation (2-3 times per week outside of experiments) and housed in a room maintained at 22° C. with 50% humidity and access to food and water ad libitum. The animal masses at the end of the experiments were between 400-550 g.
For the in situ animal injections, all drugs were dissolved in artificial cerebrospinal fluid (aCSF) solution formulated in-lab comprised of 120 mM NaCl, 4.8 mM KCl, 1.2 mM KH2PO4, 1.2 mM MgSO4, 25 mM NaHCO3, 2.5 mM CaCl2), and 10 mM D-glucose. Further, PAOPA (with or without hydrogel formulation) was administered at concentration of 0.5 mg/kg intranasally, selected based on effective concentrations observed via dose-dependent intraperitoneal (IP) administrations. The PAOPA was added equally to both the CMCh and the SNP solutions and allowed to sit for 24 h to allow for any polymer-drug interactions to occur before gelation. All precursor solutions were passed through a 0.45 µm filter (VWR) to sterilize them prior to injection into a live animal. […]
To administer the payload for the five experimental groups, a single rat was removed from its cage and placed into a closed anesthesia box with transparent sides for proper observation. Aerosolized isoflurane (with oxygen) was passed into the box until the rat was determined to be anesthetized via foot pinching reflex test. […]
Rats were assessed for social interaction with and without MK-801 and drug/formulation administration. […]

For series [6] the test system is unchanged. To be noted: PAOPA 1 mg/kg IP, literature; cited from earlier work.

Take `N[C@@H](Cc1ccc(O)c(O)c1)C(=O)O` [L-DOPA, 3,4-dihydroxy-L-phenylalanine]: the “duration of improved swimming speed / motility vs 6-OHDA control” value in series [1] is recorded as 4 h. In addition, the “L-DOPA oxidation (colour)” value in series [2] is recorded as “became black with oxidation”.

For `COc1cccc2c1C(=O)c1c(O)c3c(c(O)c1C2=O)C[C@@](O)(C(=O)CO)C[C@@H]3O[C@H]1C[C@H](N)[C@H](O)[C@H](C)O1.Cl` [free DOX, doxorubicin hydrochloride], the “relative tumor volume (V/V0)” value in series [3] amounted to 24 × volume increase. The body weight entry in series [4] is “significantly reduced body weight”.

As to `NC(=O)CN1CC[C@@H](NC(=O)[C@@H]2CCCN2)C1=O` [PAOPA], the social interaction deficits result in series [5] (0.5 mg/kg IN 30 minutes before MK-801, assessed 30 minutes post-MK-801) is “expected attenuation of social interaction deficits”; in series [5] (0.5 mg/kg IN, MK-801 challenge 24 hours later), “the benefits of PAOPA were no longer observed”. Also, the “total social interaction time relative to untreated control” value in series [5] (no MK-801, intranasal, PAOPA 0.5 mg/kg or unloaded hydrogel) is “neither increased nor decreased total interaction times”. Moreover, the social interaction time entry in series [6] is on record as “did not affect social interaction time”.
